From patent publication US5684026A, “Aminocyclopentane derivative” (priority 1994, dated 1997) come the findings set out here.

Common to all, as to type: biochemical
Assay [1] addresses β-Galactosidase (Bovine liver. EC 3.2.1.23). As to the kind of experiment: β-Galactosidase (Bovine liver) enzyme inhibition assay (o-nitrophenyl β-D-galactopyranoside). Particulars: pH 7.3, room temperature, 30 minutes. Here is the method:
(§1) By using a 96-well microplate, the absorbance (at 405 nm) of liberated p- or o-nitrophenol was measured with a microplate reader (MPR-4Ai, manufactured by Tosoh Corporation).
(§2) The enzymes employed herein [α-glucosidase (Baker's yeast), β-glucosidase (Almonds), α-galactosidase (E. coli), β-galactosidase (E. coli) and β-galactosidase (Bovine Liver)] were all purchased from Sigma.
(§3) The substrates (p- or o-nitrophenylglycoside) of these enzymes were all purchased from Sigma.
5) β-Galactosidase (Bovine liver. EC 3.2.1.23) [described in T. Aoyagi, T. Hazato, M. Kumagai, M. Hamada, T. Takeuchi and H. Umezawa, J. Antibiot., 28, 1006-1008 (1975)]
Into each well were introduced an aqueous solution of a sample (2 μl), a buffer (158 μl), a 20 mM solution of o-nitrophenyl β-D-galactopyranoside in a buffer (25 μl), a 100 mM 2-mercaptoethanol (10 μl) and a (5 mg/ml) enzyme solution in the buffer (5 μl) to give a total volume of 200 μl. After incubating at room temperature (20°-30° C.) for 30 minutes, the absorbance (A405) of o-nitrophenol liberated by this enzyme reaction was measured. To give the blank absorbance (Ablank), the sample (2 μl), the substrate (25 μl), the buffer solution (163 μl) and 2-mercaptoethanol (10 μl) were incubated in the same manner followed by the measurement of the absorbance. […] The IC50 was determined in the same manner as the one employed in the case of α-glucosidase.

Assay [2] has as its target T1, β-Galactosidase (E. Coli, EC. 3.2.1.23) (Escherichia coli, UniProt P00722).
T1 construct: purchased Sigma; host or cells: E. coli
As to the kind of experiment: β-Galactosidase (E. coli) enzyme inhibition assay (o-nitrophenyl β-D-galactopyranoside). The protocol: as §1, §2, §3
4) β-Galactosidase (E. Coli, EC. 3.2.1.23) [described in G. R. Craven, E. Steers, Jr. and C. B. Anfinsen, J. Biol. Chem., 240, 2468-2477 (1965)]
Into each well were introduced an aqueous solution of a sample (2 μl), a buffer (153 μl), a 20 mM solution of o-nitrophenyl β-D-galactopyranoside in a buffer (25 μl), a 100 mM 2-mercaptoethanol (10 μl) and a (10 μg/ml) enzyme solution in the buffer (10 μl) to give a total volume of 200 μl. After incubating at room temperature (20°-30° C.) for 30 minutes, the absorbance (A405) of o-nitrophenol liberated by this enzyme reaction was measured. To give the blank absorbance (Ablank), the sample (2 μl), the substrate (25 μl), the buffer solution (163 μl) and 2-mercaptoethanol (10 μl) were incubated in the same manner followed by the measurement of the absorbance. To give the control absorbance (Acontrol), on the other hand, water (2 μl), the substrate (25 μl), the buffer solution (153 μl), 2-mercaptoethanol (10 μl) and the enzyme solution (10 μl) were incubated in the same manner followed by the measurement of the absorbance. A 50 mM phosphate buffer solution (pH 7.3, prepared from KH2 PO4 and K2 HPO4, containing 1.3 mM of MgCl2) was employed as the buffer for the enzyme reaction. The IC50 was determined in the same manner as employed in the case of α-glucosidase.

The target in assay [3] is T2, α-Glucosidase (Baker's yeast, EC 3.2.1.20) (Saccharomyces cerevisiae, UniProt P53341).
T2 construct: purchased Sigma; host or cells: Baker's yeast
T2 sequence (P53341 whole entry): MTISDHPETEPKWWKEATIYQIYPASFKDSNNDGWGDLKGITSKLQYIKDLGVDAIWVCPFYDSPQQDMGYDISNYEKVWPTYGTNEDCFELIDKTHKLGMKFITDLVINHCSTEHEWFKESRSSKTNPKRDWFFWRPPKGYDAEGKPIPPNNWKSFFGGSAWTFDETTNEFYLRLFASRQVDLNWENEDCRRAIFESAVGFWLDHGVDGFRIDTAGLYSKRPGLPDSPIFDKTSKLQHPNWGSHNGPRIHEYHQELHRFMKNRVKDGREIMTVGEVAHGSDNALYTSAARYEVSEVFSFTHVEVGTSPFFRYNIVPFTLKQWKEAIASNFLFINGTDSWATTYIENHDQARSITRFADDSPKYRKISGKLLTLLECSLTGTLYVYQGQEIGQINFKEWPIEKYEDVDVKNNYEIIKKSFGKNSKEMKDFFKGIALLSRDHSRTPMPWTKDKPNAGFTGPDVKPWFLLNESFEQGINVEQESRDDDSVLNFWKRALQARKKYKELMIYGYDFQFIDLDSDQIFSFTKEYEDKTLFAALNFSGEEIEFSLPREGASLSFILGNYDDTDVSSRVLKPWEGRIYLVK
As to the kind of experiment: α-Glucosidase enzyme inhibition assay (p-nitrophenyl α-D-glucopyranoside). Particulars: for IC50: pH 6.8, 37° C., 30 minutes, read-out: IC50 (M) α-Glucosidase (Baker's yeast). The protocol:
as §1
(§4) Incubation was carried out at 37° C. by using a natural incubator (Compact NIB-10, manufactured by Iwaki Glass Co., Ltd.).
as §2, §3
1) α-Glucosidase (Baker's yeast, EC 3.2.1.20) [described in H. Halvorson and L. Ellias, Biochim. Biophys. Acta, 30, 28-40 (1958)]
Into each well were introduced an aqueous solution of a sample (1 μl), a 0.66 mM solution of p-nitrophenyl α-D-glucopyranoside in a buffer (98 μl) and a (0.4 mg/ml) enzyme solution in the buffer (1 μl) to give a total volume of 100 μl. After incubating at 37° C. for 30 minutes, the reaction was ceased by adding a 1M aqueous solution of sodium carbonate (100 μl). Then the absorbance (A405) of p-nitrophenol liberated by this enzyme reaction was measured. To give the blank absorbance (Ablank), the sample (1 μl) and the substrate (99 μl) were incubated in the same manner and an aqueous solution of sodium carbonate (100 μl) was added followed by the measurement of the absorbance. […] The sample at each concentration, the blank and the control were treated each in two wells at the same time. As the buffer, a 0.1M phosphate buffer solution (pH 6.8, prepared from KH2 PO4 and K2 HPO4) was employed.

For assay [4], the system named is α-Galactosidase (E. Coli, EC. 3.2.1.22). As to the kind of experiment: α-Galactosidase enzyme inhibition assay (p-nitrophenyl α-D-galactopyranoside). Particulars: pH 6.5, room temperature, 15 minutes. The protocol: as §1, §2, §3
3) α-Galactosidase (E. Coli, EC. 3.2.1.22) [described in H. Suzuki, S-C. Li and Y-T. Li, J. Biol. Chem., 245, 781-786 (1970)]
Into each well were introduced an aqueous solution of a sample (1 μl), a buffer (74 μl), a 9.9 mM solution of p-nitrophenyl α-D-galactopyranoside in a buffer (20 μl) and a (50 μg/ml) enzyme solution in the buffer (5 μl) to give a total volume of 100 μl. After incubating the resulting mixture at room temperature (20°-30° C.) for 15 minutes, the reaction was ceased by adding a 0.2M borate buffer solution (pH 9.8, prepared from NaOH and H3 BO3, 100 μl). Then the absorbance (A405) of p-nitrophenol liberated by this enzyme reaction was measured. To give the blank absorbance (Ablank), the sample (1 μl), the substrate (20 μl) and the buffer solution (79 μl) were incubated in the same manner and the 0.2M borate buffer solution (100 μl) was added followed by the measurement of the absorbance. To give the control absorbance ([…]), on the other hand, water (1 μl), the substrate (20 μl), the buffer solution (74 μl) and the enzyme solution (5 μl) were incubated in the same manner and the borate buffer solution (100 μl) was added followed by the measurement of the absorbance. A 0.1M phosphate buffer solution (pH 6.5, prepared from KH2 PO4 and K2 HPO4) was employed as the buffer for the enzyme reaction. The IC50 was determined in the same manner as employed in the case of α-glucosidase.

The target of assay [5] is β-Glucosidase (Almonds, EC 3.2.1.21). As to the kind of experiment: β-Glucosidase enzyme inhibition assay (p-nitrophenyl β-D-glucopyranoside). The following applies: for IC50: pH 5.0, 37° C., 45 minutes. The protocol:
as §1, §4, §2, §3
2) β-Glucosidase (Almonds, EC 3.2.1.21) [described in A. Kobayashi, Agr. Biol. Chem., 26, 203-207 (1962)]
Into each well were introduced an aqueous solution of a sample (1 μl), a 0.33 mM solution of p-nitrophenyl β-D-glucopyranoside in a buffer (98 μl) and a (0.4 mg/ml) enzyme solution in the buffer (1 μl) to give a total volume of 100 μl. After incubating at 37° C. for 45 minutes, the reaction was ceased by adding a 1M aqueous solution of sodium carbonate (100 μl). Then the absorbance (A405) of p-nitrophenol liberated by this enzyme reaction was measured. To give the blank absorbance (Ablank), the sample (1 μl) and the substrate (99 μl) were incubated in the same manner and an aqueous solution of sodium carbonate (100 μl) was added followed by the measurement of the absorbance. […] As the buffer, a 0.1M acetate buffer solution (pH 5.0, prepared from NaOAc and AcOH) was employed. The IC50 was determined in the same manner as employed in the case of α-glucosidase.

Broadly, the IC50 is the concentration needed to halve the response being measured.

T1 sequence (P00722 2-1024 limits assumed): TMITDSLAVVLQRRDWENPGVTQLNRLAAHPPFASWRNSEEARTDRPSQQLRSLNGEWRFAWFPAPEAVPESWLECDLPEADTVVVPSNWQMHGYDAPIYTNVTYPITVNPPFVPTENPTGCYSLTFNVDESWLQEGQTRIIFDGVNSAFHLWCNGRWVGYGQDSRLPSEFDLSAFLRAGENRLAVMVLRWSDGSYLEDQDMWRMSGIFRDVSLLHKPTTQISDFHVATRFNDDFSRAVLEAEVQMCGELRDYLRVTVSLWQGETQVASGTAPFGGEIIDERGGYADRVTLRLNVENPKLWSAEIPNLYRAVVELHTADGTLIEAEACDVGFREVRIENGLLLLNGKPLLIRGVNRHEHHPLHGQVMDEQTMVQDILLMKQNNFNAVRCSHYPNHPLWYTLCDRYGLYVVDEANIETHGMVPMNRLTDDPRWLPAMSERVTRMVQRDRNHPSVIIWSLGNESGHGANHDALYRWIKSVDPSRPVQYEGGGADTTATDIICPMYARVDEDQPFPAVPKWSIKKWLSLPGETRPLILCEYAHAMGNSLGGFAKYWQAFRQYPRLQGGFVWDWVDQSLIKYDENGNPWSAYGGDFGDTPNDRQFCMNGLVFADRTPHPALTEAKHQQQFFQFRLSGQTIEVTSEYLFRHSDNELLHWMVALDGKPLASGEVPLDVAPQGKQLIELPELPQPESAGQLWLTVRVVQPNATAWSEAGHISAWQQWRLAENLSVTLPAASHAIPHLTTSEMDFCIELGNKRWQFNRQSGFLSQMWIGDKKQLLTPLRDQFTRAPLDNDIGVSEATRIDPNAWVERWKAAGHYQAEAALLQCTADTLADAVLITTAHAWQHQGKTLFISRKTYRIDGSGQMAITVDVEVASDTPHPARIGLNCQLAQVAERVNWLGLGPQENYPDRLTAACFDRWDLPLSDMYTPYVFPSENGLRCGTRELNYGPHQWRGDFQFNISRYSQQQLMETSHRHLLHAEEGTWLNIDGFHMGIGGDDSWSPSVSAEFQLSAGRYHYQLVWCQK

`OC[C@@]1(O)[C@H](O)C(O)[C@@H]2OC(Nc3ccccc3)=N[C@@H]21` (stereo in doubt) [Compound 1-1D, (1R,5S,6R,7R,8S)-6-hydroxymethyl-3-phenylamino-2-oxa-4-azabicyclo[3.3.0]oct-3-ene-6,7,8-triol]: the half-maximal inhibitory concentration (IC50) in assay [1] is 3 µM; in assay [2] it was more than 300 µM; in assay [3] it was 2.32e-06 M; in assay [4], more than 300 µM; in assay [5], more than 300 µM.

On to `OC[C@@]1(O)[C@@H]2N=C(Nc3ccccc3)O[C@@H]2C(O)[C@@H]1O` (stereo in doubt) [Compound 1-1L, (1S,5R,6S,7S,8R)-6-hydroxymethyl-3-phenylamino-2-oxa-4-azabicyclo[3.3.0]oct-3-ene-6,7,8-triol], for which the IC50 in assay [1] was 153 µM; in assay [2], more than 300 µM; in assay [3], 2.93e-08 M; in assay [4], more than 300 µM; in assay [5] it was more than 300 µM. Further, the “inhibitory activity against α-glucosidase (in words)” value in assay [3] (compared with deoxynojirimycin, summary of Tables 1 and 2) was “remarkably strong inhibitory activities”. Besides, the “inhibitory activity against β-glucosidase (in words)” value in assay [5] (summary of Table 1) is “weak inhibitory activities”.
